The assay has as its target α-Glucosidase from Saccharomyces cerevisiae (Saccharomyces cerevisiae, UniProt P53341). Description: α-Glucosidase inhibiting activity (α-GIA), p-NPG substrate. It is filed as biochemical. As to conditions: 0.5 U/ml enzyme, pH 6.8, 37°C, 5 mM p-NPG.

One compound from PMC8440871, “LC-Q-Orbitrap-MS/MS Characterization, Antioxidant Activity, and α-Glucosidase-Inhibiting Activity With In Silico Analysis of Extract From Clausena Indica (Datz.) Oliv Fruit Pericarps” (Frontiers in Nutrition, 2021) can be followed below.

In brackets after ≈: the same amount, converted by molar mass.

Sequence of α-Glucosidase from Saccharomyces cerevisiae (P53341 whole entry): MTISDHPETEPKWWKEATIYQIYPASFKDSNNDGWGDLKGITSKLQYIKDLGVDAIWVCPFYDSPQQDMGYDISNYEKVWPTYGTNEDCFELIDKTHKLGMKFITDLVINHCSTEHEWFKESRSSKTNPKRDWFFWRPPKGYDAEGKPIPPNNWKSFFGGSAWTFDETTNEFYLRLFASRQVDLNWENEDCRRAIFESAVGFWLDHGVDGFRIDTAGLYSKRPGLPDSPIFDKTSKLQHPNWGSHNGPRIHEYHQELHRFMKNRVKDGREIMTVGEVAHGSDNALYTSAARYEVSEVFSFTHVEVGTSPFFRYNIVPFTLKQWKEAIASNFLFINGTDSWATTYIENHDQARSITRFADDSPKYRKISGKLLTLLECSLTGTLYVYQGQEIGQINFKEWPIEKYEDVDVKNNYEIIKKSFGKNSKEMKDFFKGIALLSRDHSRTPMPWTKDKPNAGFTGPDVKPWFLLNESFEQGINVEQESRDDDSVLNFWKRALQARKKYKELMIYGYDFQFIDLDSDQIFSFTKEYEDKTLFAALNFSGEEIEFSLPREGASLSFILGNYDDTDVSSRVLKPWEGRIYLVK

For `Oc1cc(O)c2c(c1)O[C@H](c1ccc(O)c(O)c1)[C@@H](O)C2` [(+)-Catechin], the “IC50 α-GIA” value was 374.23 µg/mL (≈ 1290 µM).
